Three molecules from publication PMC13184988, “Enzymatic Bromination of Native Peptides for Late-Stage Structural Diversification via Suzuki–Miyaura Coupling” (ACS Chemical Biology, 2026) can be followed below.

Where “and” joins values, the source holds several entries; their conditions need not be identical. Identical values can stand only once. *1 amine or outer side, *2 acyl side, *3 side chain or, on linkers, in order; H or OH if unused. Where a SMILES comes first, the peptide text is derived from it. [ ]: non-standard residue; d: D form. X1 = O=C([C@H](Cc1c[nH]c2c(-c3cccc(C(F)(F)F)c3)cccc12)N[*:1])[*:2]; Trp(7-Br) = N[C@@H](Cc1c[nH]c2c(Br)cccc12)C(=O)O

Assay [1] deals with E. coli XL10. Kind of assay: Bacterial minimal inhibitory concentration, 18 h growth inhibition assay. In kind it is cell-based.
For assay [2], the system named is E. coli XL10. Kind of assay: Minimal bactericidal concentration (Petri dish and spot assay). In kind it is cell-based. On the procedure: 0.5%. After incubation, the cells were washed 2 × 0.5 mg/mL heparin sulfate in PBS and then washed with 2 × FluoroBrite DMEM. FluoroBrite DMEM (200 µL) was added to each well for imaging. 1 drop of NucRed nuclear counterstain was added to visualize the cell nuclei. The cells were imaged using a Nikon microscope equipped with an Orca-Fire camera. Fiji was used for […]
. Fluorescence images were background corrected and individual nuclei were segmented based on a threshold intensity in the NucRed […]
Mueller-Hinton II cation-adjusted broth (10 mL) was inoculated with E. coli XL10 and incubated overnight with shaking at 37°C. The next day, the overnight culture was diluted to an OD600 of 0.5 […]
OD600 0.5 culture was further diluted 20-fold into fresh Mueller-Hinton II cation-adjusted broth […]
From each triplicate experiment, 100 µL of the 18-hour minimal inhibitory growth culture (see above) was plated on a petri dish containing Mueller-Hinton II cation-adjusted agar. […] The next morning, the bacterial growth on each triplicate plate was assessed. […]
Using a multichannel pipette, 3 μL from each triplicate of the 18-hour minimal inhibitory growth culture (see above) was spotted on a square petri dish containing Mueller-Hinton II cation-adjusted agar. […] The next morning, the bacterial growth on each triplicate plate was assessed. […]

For assay [3], the system named is 4V. Type of assay: biochemical.

Take `N=C(N)NCCC[C@H](NC(=O)[C@H](Cc1c[nH]c2ccccc12)NC(=O)[C@H](CCCNC(=N)N)NC(=O)[C@H](Cc1c[nH]c2ccccc12)NC(=O)[C@@H](N)CCCNC(=N)N)C(=O)N[C@@H](Cc1c[nH]c2c(Br)cccc12)C(N)=O` [Br-(RW)3] (H-RWRWR[Trp(7-Br)]-NH2; N-terminus assumed): the “fold decrease in MIC relative to the parent peptide (RW)3” value in assay [1] is listed as “approximately 4 fold”. Further, the “fold decrease in MBC relative to the parent peptide (RW)3” value in assay [2] is recorded as “approximately 4 fold”.

Regarding `N=C(N)NCCC[C@H](NC(=O)[C@H](Cc1c[nH]c2ccccc12)NC(=O)[C@H](CCCNC(=N)N)NC(=O)[C@H](Cc1c[nH]c2ccccc12)NC(=O)[C@@H](N)CCCNC(=N)N)C(=O)N[C@@H](Cc1c[nH]c2c(-c3cccc(C(F)(F)F)c3)cccc12)C(N)=O` [CF3(−RW)3] (H-RWRWR[X1]-NH2; N-terminus assumed), the “fold decrease in MBC relative to the parent peptide (RW)3” value in assay [2] is on record as 4 fold.

Take galanin: in assay [3], the “Average Percent Conversion” value is given as 21.379%; the “Percent Br2 Conversion (EIC)” value is listed as 0%; the “Percent Br Conversion (EIC)” value is 21.5543% and 21.2037%; the “Total Percent Conversion” value is 21.2037% and 21.5543%. Also, in assay [3] (unmodified bioactive peptides, 1 mM peptide, 10 mM NaBr, 25 μM 4V, 25 mM HEPES pH 7.4, 24 h ambient, n = 3 independent experiments), the “4V-catalyzed conversion to the monobrominated product” value came to 16.8 ± 0.2%.
